Among the data in patent publication US6541480B2, “1-aryl-1,8-naphthylidin-4-one derivative as type IV phosphodiesterase inhibitor” (Suntory Limited, priority 1997, dated 2003) are IC50 values, retold here.

Test [1] concerns TNF-α production by LPS stimulated mouse peritoneal macrophages. Kind of test: TNF-α production inhibitory activity by LPS stimulated macrophages (ELISA). Format: cell-based. Conditions: LPS 10 μg/ml, 8 hours. As for the experimental part:
(1) Method of Measurement of TNF-α Production Inhibitory Activity by LPS Stimulated Macrophages
The following assay was used to evaluate the ability of the compound of the present invention to suppress TNF-α production by LPS stimulated macrophages according to Immuno pharmacol. 29, 121-127 (1995).
1) 6 to 10 week old female BALB/c mice were used, 2 ml portions of thioglycolate were intraperitoneally administered, and the abdominal cavities were washed by 10 ml of PBS after 4 days, whereby 1 to 2×10^7 peritoneal cells were obtained per mouse. These were suspended in a hemocyte solution (0.75% ammonium chloride, 17 mM tris-hydrochlorate buffer, pH7.2), centrifuged, then resuspended in an RPMI1640 medium including 10% fetal calf serum and seeded in a 96-well cell culture plate at a density of 1×10^5 cells/50 μl/well. Since these cells adhered strongly to the tissue culture plate and were positive in nonspecific esterase staining, they were used for the test as mouse peritoneal macrophages. Mouse peritoneal macrophages were precultured overnight at 37° C. in 5% CO2 for the experiment.
2) E. Coli (serum type 055:B5) derived LPS was dissolved in PBS in a concentration of 1 mg/ml, then sterilized by filtration. The test compound was dissolved in DMSO to make a 1000-fold concentration solution of the final concentration of use. 10 μl of the above LPS stock solution (final concentration 10 μg/ml) and 1 μl of the tested substance stock solution were added and mixed in 0.5 ml of RPMI1640 medium containing 10% fetal calf serum. This was added to the above cells at 50 μl/well and cultured for 8 hours. The cultured supernatant was recovered from each well and the TNF-α concentration was measured by the ELISA method (Cytoscreen® Immunoassay Kit Mouse TNF-α, BioSource International).

Test [2] concerns type IV phosphodiesterase. Kind of test: Type IV phosphodiesterase inhibiting activity (3H-cAMP hydrolysis, PDE IV fraction from U937 cells). Format: biochemical. The settings on record: PDE IV fraction from human U937 cells, 30° C., 30 minutes. As for the experimental part:
(1) Method of Measurement of Type IV Phosphodiesterase Inhibiting Activity
The following assay was used to evaluate the ability of the compound of the present invention to suppress type IV phosphodiesterase, according to Biochemical.
1) Type IV phosphodiesterase activity fractions were prepared as follows. Human histiocytic lymphoma cell line U937 was cultured in an RPMI1640 medium containing 10% fetal calf serum to obtain 10^9 cells of U937. The cells were recovered by centrifugation and suspended in 40 ml of buffer A (20 mM bis-tris, 5 mM 2-mercaptoethanol, 2 mM benzamidine, 2 mM EDTA, 0.1 mM 4-(2-aminoethyl)benzensulfonyl hydrochloride, 50 mM sodium acetate, pH=6.5). The cells were broken by a sonication and centrifuged (4° C., 10,000G, 10 minutes) to obtain a supernatent. This was filtered by a 0.45 μm filter to obtain the soluble fraction.
The soluble fraction obtained was applied into a 1×10 cm DEAE Sepharose column equalibrated with the buffer A. 120 ml of the buffer A containing a linear gradient solution of 0.05 to 1 M sodium acetate was used to separate the phosphodiesterase and recover 24 5-ml fractions. Each of the fractions was measured for the cAMP phosphodiesterase activity.
2) The test compound was reacted at a desired concentration in a reaction mixture containing 20 mM tris-HCl (pH 7.5), 1 mM MgCl2, 100 μM EDTA, 330 μg/ml calf serum albumin, 10 μg/ml 5′-nucleotidase, 0.4 μCi ^3H-cAMP ([…] cAMP) and the type IV phosphodiesterase stored solution at 30° C. for 30 minutes. QAE-Sephadex suspended in 10 mM of hepes-Na (pH-7.0) was added to the reaction mixture which was then allowed to stand for 5 minutes, then the supernatant was obtained, QAE-Sephadex was further added, to the supernatant, and was allowed to stand for 5 minutes, then the supernatant was obtained and measured for radioactivity.

Consider `O=C(NCCc1ccncc1)c1cn(-c2ccccc2)c2ncccc2c1=O` [Example 119, 1-Phenyl-N-[2-(4-pyridyl)ethyl]-1,4-dihydro[1,8]naphthylidin-4-one-3-carboxamide], for which the half-maximal inhibitory concentration (IC50) (commonly the concentration at which inhibition is half-maximal) was 700 nM in test [1] and 250 nM in test [2].

`O=C(NC1CCCCC1)c1cn(-c2ccc(F)cc2)c2ncccc2c1=O` [Example 57, N-cyclohexyl-1-(4-fluorophenyl)-1,4-dihydro[1,8]naohthylidin-4-one-3-carboxamide]: the figures for the IC50 in test [1] (Peritoneal macrophage) and in test [2] were 1000 nM and 710 nM, respectively.

Take `O=C(Nc1cccnc1Cl)c1cn(-c2ccc(F)cc2)c2ncccc2c1=O` [Example 105, N-(2-Chloropyridin-3-yl)-1-(4-fluorophenyl)-1,4-dihydro[1,8]naphthylidin-4-one-3-carboxamide]: the IC50 was 400 nM in test [1] (Peritoneal macrophage) and 85 nM in test [2].

`O=C(Nc1c(Cl)cncc1Cl)c1cn(-c2ccccc2)c2ncccc2c1=O` [Example 118, N-(3,5-Dichloropyridin-4-yl)-1-phenyl-1,4-dihydro[1,8]naphthylidin-4-one-3-carboxamide]: the IC50 in test [1] (Peritoneal macrophage) is 0.4 nM; in test [2], 0.2 nM.

Turning to `O=C(Nc1ccncn1)c1cn(-c2ccc(F)cc2)c2ncccc2c1=O` [Example 107, 1-(4-Fluorophenyl)-N-(4-pyrimidyl)-1,4-dihydro[1,8]naphthylidin-4-one-3-carboxamide], the IC50 in test [1] (Peritoneal macrophage) turned out to be 1000 nM; in test [2] it was 520 nM.

`O=C(Nc1ccccc1)c1cn(-c2ccc(F)cc2)c2ncccc2c1=O` [Example 67, N-phenyl-1-(4-fluorophenyl)-1,4-dihydro[1,8]naphthylidin-4-one-3-carboxamide]: the IC50 stood at 700 nM in test [1] (Peritoneal macrophage) and 60 nM in test [2].

Turning to `O=C(Nc1ccc(O)cc1)c1cn(-c2ccc(F)cc2)c2ncccc2c1=O` [Example 75, 1-(4-Fluorophenyl)-N-(4-hydroxyhenyl)-1,4-dihydro[1,8]naphthylidin-4-one-3-arboxamide], the IC50 stood at 200 nM in test [1] (Peritoneal macrophage) and 100 nM in test [2].

Regarding `O=C(Nc1ccncc1)c1cn(-c2cccc(CO)c2)c2ncccc2c1=O` [Example 127, 1-(3-Hydroxymethylphenyl)-N-(4-pyridyl)-1,4-dihydro[1,8]naphthylidin-4-one-3-carboxamide], the results for the IC50 in test [1] (Peritoneal macrophage) and in test [2] were 300 nM and 56 nM, respectively.

As for `O=C(Nc1ccccc1O)c1cn(-c2ccc(F)cc2)c2ncccc2c1=O` [Example 73, 1-(4-Fluorophenyl)-N-(2-hydroxyphenuyl)-1,4-dihydro[1,8]naphthylidin-4-one-3-carboxamide], the IC50 in test [1] (Peritoneal macrophage) was 1000 nM; in test [2], 810 nM.

For the compound `O=C(Nc1ccncc1)c1cn(-c2cccnc2)c2ncccc2c1=O` [Example 135, 1-(3-Pyridyl)-N-(4-pyridyl)-1,4-dihydro[1,8]naphthylidin-4-one-3-carboxamide], the values for the IC50 in test [1] (Peritoneal macrophage) and in test [2] were 500 nM and 130 nM, respectively.

For the compound `COc1ccc(C2CNC(=O)C2)cc1OC1CCCC1` (stereo not drawn) [Rolipram, reference compound], the IC50 in test [1] (Peritoneal macrophage) turned out to be 100 nM.

Compound `CC(C)(C)OC(=O)Nc1ncc(-n2cc(C(=O)Nc3ccncc3)c(=O)c3cccnc32)cn1` [Example 150, 1-(2-tert-Butyloxycarbonylaminopyrimidin-5-yl)-N-(4-pyridyl)-1,4-dihydro[1,8]naphthylidin-4-one-3-carboxamide] returned a half-maximal inhibitory concentration (IC50) in test [1] of 400 nM.

`CCOC(=O)c1cccc(NC(=O)c2cn(-c3ccc(F)cc3)c3ncccc3c2=O)c1` [Example 85, Ethyl 3-[{[1-(4-Fluorophenyl)-1,4-dihydro[1,8]naphthylidin-4-one-3-yl]carbonyl}amino]benzoate] displayed an IC50 in test [2] of 550 nM.

Turning to `N=C(N)c1cccc(-n2cc(C(=O)Nc3ccncc3)c(=O)c3cccnc32)c1` [Example 130, 1-(Benzamidin-3-yl)-N-(4-pyridyl)-1,4-dihydro[1,8]naphthylidin-4-one-3-carboxamide], in test [2], inhibition was half-maximal at 260 nM (IC50).
